Regarding `CC1(C)CN=C(c2cnc3ccccc3c2)c2ccccc2O1`, the melting point (commonly the temperature of the solid-liquid transition) lay within 134 to 135 °C.

Take `CCOc1cc2c(Nc3cc(OC)c(Cl)cc3Cl)c(C#N)cnc2cc1N`: the melting point was 230 to 233 °C.

`COC(=O)c1ccccc1S(=O)(=O)NC(=O)Nc1nc(C)cc(COC(C)=O)n1` displayed a melting point of 145 to 150 °C.

Regarding `CCOc1c(C(O)CCc2ccn(C)c2)c(OCCN2CCCCC2)c(OC)c2occc12` (stereo not drawn), the melting point came out at 88 °C.

`c1ccc(-c2cccc(-n3cnc4cccnc43)c2)cc1` showed a melting point of 89 to 91 °C.

The compound `O=c1ccn(CCO)c(C(O)c2ccccc2)c1OCc1ccccc1` (single isomer, unassigned; (+)) returned a melting point of 169 to 170 °C.

Compound `CC(C)(C)OC(=O)N[C@@H](Cc1ccccc1)[C@H](C#N)OC(=O)c1ccc(-c2ccccn2)cc1` registered a melting point of 140 to 141 °C.

The compound `CCCOc1ccc(-c2csc(-c3ccccc3)c2CC(=O)N=C(N)N)cc1` gave a melting point of 131 to 132 °C.

In turn, `CS(=O)(=O)CCNC(=O)c1ccc(-c2ccc3cnc(Nc4ccc(N5CCOCC5)cc4)nn23)cc1` showed a melting point of 241 to 242 °C.

`COC(=O)c1ccc(C23CC4CC(CC(C4)C2)C3)c(O)c1`: the melting point lay within 244 to 246 °C.

For `COc1ccc(CC[C@H]2CN(Cc3ccccc3)CCN2Cc2ccccc2)cc1`, the melting point is 88 to 91 °C.

Compound `CN(C)C1CCN(C(=O)C2CCC(c3[nH]nc4c3C(=O)c3c(NC(=O)NN5CCOCC5)cccc3-4)CC2)C1` (stereo not drawn) came in with a melting point of 191 to 193 °C.

As to `N#Cc1ccccc1Sc1ccc([N+](=O)[O-])cc1`, the melting point is 151 to 153 °C.

`CS(=O)(=O)OCC1CC(=O)N(c2ccc(-c3ccc(C#N)cc3)cc2)C1` (stereo not drawn) yielded a melting point of 183 to 186 °C.

Compound `C=CCn1c(COCc2ccc(OC)cc2)nc(C(C)C)c1Sc1cc(Cl)cc(Cl)c1` returned a melting point of 100 to 102 °C.

With `CC(=O)NCC1CC1c1cccc2nnsc12` (stereo not drawn), the melting point was in the range of 81 to 82 °C.

For the compound `C#Cc1cc(C(C)(C)C)cc(C(C)(C)C)c1OCC`, the melting point lay in the range of 46 to 47 °C.

The compound `Cc1nnc(-c2ccc3ncn(-c4cc(C(F)(F)F)ccc4Cl)c3c2)o1` yielded a melting point of 211 to 212 °C.

Regarding `CCCOc1ccccc1-c1nc2nc(S(C)(=O)=O)ncc2c(=O)[nH]1`, the melting point lay within 217 to 219 °C.

`CC(Cl)CC1Oc2ncccc2C(=S)NC1C` (stereo not drawn): the melting point is 95 to 97 °C.

Take `Cc1ccc2nc(SCCN(C(C)C)C(C)C)[nH]c2c1`: the melting point fell in the range of 109 to 110 °C.

In the case of `CCOC(=O)c1cn(CCF)c2nc(N3CCN(C(C)=O)CC3)c(F)cc2c1=O`, the melting point fell in the range of 183 to 185 °C.

Turning to `COC(=O)C[C@@H](CC(=O)C=Cc1c(-c2ccc(F)cc2)c(-c2ccc(F)cc2)c(C(=O)Nc2ccc(S(N)(=O)=O)cc2)n1C(C)C)O[Si](C)(C)C(C)(C)C`, the melting point lay in the range of 108 to 110 °C.

For `COC1C(C)OC(OC2CC(C)(O)C(C(=O)O)c3cc4c(c(O)c32)C(=O)c2c(O)cc3c(c2C4=O)OC2OC3(C)C(O)C(N(C)C)C2O)C(OC)C1(C)OC` (stereo not drawn), the melting point lay within 219 to 229 °C.

For `CCOC(=O)c1cnn2c1c(NCCCN(C)C)nc1ccccc12`, the melting point fell in the range of 72 to 74 °C.

`COC(=O)c1c(OCc2ccccc2)ccc2c1CCCC2=NO` gave a melting point of 135 to 137 °C.

In turn, `COc1ccccc1N1CCN(CCCCCC(=O)N2Cc3ccccc3C2)CC1` yielded a melting point of 100 °C.

As for `Cc1ccc(CC2CCCN(c3nc(C)c(C(=O)NCc4ccccc4)s3)C2=O)cc1` (stereo not drawn), the melting point lay in the range of 110 to 113 °C.

With `CC(C)On1c(C(C)(C)C)nc2c(N)nc3ccccc3c21`, the melting point lay within 187 to 189 °C.

`CC(C)(C)C(=O)C(CS(=O)(=O)c1ccccc1)n1cncn1` (stereo not drawn) registered a melting point of 135 °C.

Take `O=C(O)c1cn(-c2ccncc2F)c2cc(F)c(F)cc2c1=O`: the melting point fell in the range of 271 to 273 °C.

Regarding `Nc1cc(F)ccc1[N+](=O)[O-]`, the melting point turned out to be 99 °C.

On to `Cc1nc2c3c(ccc2n1C)C(=O)[C@H](O)[C@@H](c1ccccc1)O3`, for which the melting point was 233 °C.

Source of the values: a melting point compilation (Tetko et al.; mined from patent text by program, amines drawn as free bases though some values may be those of a salt).
